Measurements as given in patent US8044035B2, “Pharmaceutical compositions of pyrimidine-2,4,6-triones” (priority 2004, dated 2011).
In brackets after ≈: the same amount, converted by molar mass. Where two headings read alike, the source gives them in different places.

How the values were obtained:
[1] = Phase solubility studies of Compound I with cyclodextrins (excess compound, 7 days, 37° C., HPLC); format: physicochemical; conditions: for solubility at 7 days: 37 °C, thermodynamic from solid
Description: At the time of a complex formation, compound I, practically insoluble in water (<0.6 μg/ml, MW: 485), solubilizes dramatically. The increase in the solubility of compound I is thus proof of a complex formation between Compound I and the CD. Complex formation and achievement of the equilibrium is found at 20% after 1 day, 40% after 4 days, and 100% after 7 days. The solubility diagrams (FIG. 1) are carried out by adding an excess of compound I to the CD solutions of increasing concentration. After 7 days of stirring in thermostatically controlled baths at 37° C., these solutions are filtered and the solubilized compound I quantity is dosed by HPLC. The βCD and the γCD as well as their synthetic derivatives have allowed complexes with compound I to be formed. The β-CD and the HPβCD come from ROQUETTE (France), the RMβCD and the γCD have been supplied by Wacker (Germany).
The flasks containing compound I and the cyclodextrins are placed being stirred in thermostatically controlled baths at 37° C. for 7 days, so that the complexation balance is reached. After this time, the suspensions are filtered with the help of a milli-pore filter 0.22 μm in PVDF and the filtrate is dissolved in DMSO in the mobile phase to obtain concentration samples situating themselves on the calibrating line. They are then dosed thanks to the validated HPLC method, described below.
Mobile phase: mixture of phosphate buffer 0.05 M to pH=3 and methanol (30/70, v/v). Gas is extracted by an ultrasound passage for 15 minutes, output: 1 ml/min, λ of U.V. detection: 265 nm, Working temperature: 30° C., Injection volume: 20 μl.
The results of the HPLC dosages of Compound I are reproduced in the tables below (Tables 1 to 4) for each cyclodextrin.

[2] = tested on: allergen-induced airway inflammation in a mouse model of asthma; test: Mouse model of asthma, inhalation, long-term exposure challenge (11 weeks); conditions: aerosol, long term (11 weeks) allergen exposure, p<0.01
Description: Intraperitoneal injections were performed 30 min before OVA inhalations. […] Two protocols referred to as short exposure challenge and long-term exposure challenge were used. […] No inhalations were performed during even weeks.
The aerosol were produced by using an ultrasonic nebuliser SYSTAM (Système Assistance Medical, Le Ledat, France), the vibration frequency of which is 2.4 MHz with variable vibration intensity and ventilation levels. Vibration intensity was fixed in position 6 and the ventilation level was 25(v1/2) l/min.
Immediately after the assessment of airway responsiveness, mice were sacrificed and 1 ml of PBS free of ionised calcium and magnesium but supplemented with 0.05 mM sodium EDTA was instilled 4 times via a tracheal cannula and recovered by gentle manual aspiration. […] After BAL, the thorax was opened and the left main bronchus was clamped. […] Another score referred to as tissue eosinophil infiltration score, specifically reflecting the amounts of eosinophils infiltrating the bronchial walls, was measured as follows: after a congo red staining, seven bronchi were studied per mouse. The eosinophils were counted around the bronchi within the limits of the airway wall, the perimeter of the epithelial basement membrane was measured and the results were expressed as number of eosinophils/mm of basement membrane.

## O=C1NC(=O)C(c2ccc(-c3ccccc3)cc2)(N2CCN(c3ccc([N+](=O)[O-])cc3)CC2)C(=O)N1 [Compound I, 5-Biphenyl-4-yl-5-[4-(4-nitro-phenyl)-piperazin-1-yl]pyrimidine-2,4,6-trione]
[1]; HPβCD solution, aqueous with cosolvent or surfactant or cyclodextrin, HPβCD, maximum concentration used 200 mM, read-out: Maximum solubility
  solubility at 7 days: 4960 µg/mL (≈ 10200 µM)
[1]; RMβCD 10 mM, 37° C., 7 days
  Concentration of Compound I (solubility): 120.6 µg/mL
[1]; RMβCD solution, aqueous with cosolvent or surfactant or cyclodextrin, RMβCD, maximum concentration used 200 mM, read-out: Maximum solubility
  solubility at 7 days: 11900 µg/mL (≈ 24600 µM)
[1]; after 1 day
  Complex formation and achievement of the equilibrium: 20%
[1]; after 4 days
  Complex formation and achievement of the equilibrium: 40%
[1]; after 7 days
  Complex formation and achievement of the equilibrium: 100%
[1]; complex with HP-βCD
  K1:1 (stability constant): 12575 M⁻¹
  K1:2 (stability constant): 14.4 M⁻¹
[1]; complex with RMβCD
  K1:1 (stability constant): 27595 M⁻¹
  K1:2 (stability constant): 22.88 M⁻¹
[1]; complex with βCD
  K1:1 (stability constant): 2092 M⁻¹
[1]; complex with γCD
  K1:1 (stability constant): 346 M⁻¹
[1]; cyclodextrin solution, aqueous with cosolvent or surfactant or cyclodextrin, HPβCD 10 mM, 37° C., 7 days, read-out: Concentration of Compound I (solubility)
  solubility at 7 days: 188 µg/mL (≈ 387 µM)
[1]; cyclodextrin solution, aqueous with cosolvent or surfactant or cyclodextrin, HPβCD 25 mM, 37° C., 7 days, read-out: Concentration of Compound I (solubility)
  solubility at 7 days: 213 µg/mL (≈ 440 µM)
[1]; cyclodextrin solution, aqueous with cosolvent or surfactant or cyclodextrin, HPβCD 50 mM, 37° C., 7 days, read-out: Concentration of Compound I (solubility)
  solubility at 7 days: 236 µg/mL (≈ 486 µM)
[1]; cyclodextrin solution, aqueous with cosolvent or surfactant or cyclodextrin, HPβCD 75 mM, 37° C., 7 days, read-out: Concentration of Compound I (solubility)
  solubility at 7 days: 1130 µg/mL (≈ 2330 µM)
[1]; cyclodextrin solution, aqueous with cosolvent or surfactant or cyclodextrin, HPβCD 100 mM, 37° C., 7 days, read-out: Concentration of Compound I (solubility)
  solubility at 7 days: 1660 µg/mL (≈ 3430 µM)
[1]; cyclodextrin solution, aqueous with cosolvent or surfactant or cyclodextrin, HPβCD 150 mM, 37° C., 7 days, read-out: Concentration of Compound I (solubility)
  solubility at 7 days: 3110 µg/mL (≈ 6400 µM)
[1]; cyclodextrin solution, aqueous with cosolvent or surfactant or cyclodextrin, HPβCD 200 mM, 37° C., 7 days, read-out: Concentration of Compound I (solubility)
  solubility at 7 days: 4960 µg/mL (≈ 10200 µM)
[1]; cyclodextrin solution, aqueous with cosolvent or surfactant or cyclodextrin, RMβCD 25 mM, 37° C., 7 days, read-out: Concentration of Compound I (solubility)
  solubility at 7 days: 527 µg/mL (≈ 1080 µM)
[1]; cyclodextrin solution, aqueous with cosolvent or surfactant or cyclodextrin, RMβCD 50 mM, 37° C., 7 days, read-out: Concentration of Compound I (solubility)
  solubility at 7 days: 1530 µg/mL (≈ 3150 µM)
[1]; cyclodextrin solution, aqueous with cosolvent or surfactant or cyclodextrin, RMβCD 75 mM, 37° C., 7 days, read-out: Concentration of Compound I (solubility)
  solubility at 7 days: 3010 µg/mL (≈ 6200 µM)
[1]; cyclodextrin solution, aqueous with cosolvent or surfactant or cyclodextrin, RMβCD 100 mM, 37° C., 7 days, read-out: Concentration of Compound I (solubility)
  solubility at 7 days: 4680 µg/mL (≈ 9630 µM)
[1]; cyclodextrin solution, aqueous with cosolvent or surfactant or cyclodextrin, RMβCD 150 mM, 37° C., 7 days, read-out: Concentration of Compound I (solubility)
  solubility at 7 days: 8320 µg/mL (≈ 17100 µM)
[1]; cyclodextrin solution, aqueous with cosolvent or surfactant or cyclodextrin, RMβCD 200 mM, 37° C., 7 days, read-out: Concentration of Compound I (solubility)
  solubility at 7 days: 12000 µg/mL (≈ 24600 µM)
[1]; cyclodextrin solution, aqueous with cosolvent or surfactant or cyclodextrin, concentrations above 8 mM βCD, read-out: Solubility of additional complex of 1:2 stoichiometry (Cpd. I: βCD)
  solubility at 7 days: 1.5 µg/mL (≈ 3.09 µM)
[1]; cyclodextrin solution, aqueous with cosolvent or surfactant or cyclodextrin, in the presence of HPβCD, CD 2 mM, 37° C., 7 days, read-out: Concentration of Compound I (solubility)
  solubility at 7 days: 2.4 µg/mL
[1]; cyclodextrin solution, aqueous with cosolvent or surfactant or cyclodextrin, in the presence of HPβCD, CD 4 mM, 37° C., 7 days, read-out: Concentration of Compound I (solubility)
  solubility at 7 days: 6.8 µg/mL
[1]; cyclodextrin solution, aqueous with cosolvent or surfactant or cyclodextrin, in the presence of HPβCD, CD 8 mM, 37° C., 7 days, read-out: Concentration of Compound I (solubility)
  solubility at 7 days: 6.6 µg/mL
[1]; cyclodextrin solution, aqueous with cosolvent or surfactant or cyclodextrin, in the presence of HPβCD, CD 10 mM, 37° C., 7 days, read-out: Concentration of Compound I (solubility)
  solubility at 7 days: 3.4 µg/mL
[1]; cyclodextrin solution, aqueous with cosolvent or surfactant or cyclodextrin, in the presence of HPβCD, CD 12 mM, 37° C., 7 days, read-out: Concentration of Compound I (solubility)
  solubility at 7 days: 1.6 µg/mL
[1]; cyclodextrin solution, aqueous with cosolvent or surfactant or cyclodextrin, in the presence of HPβCD, CD 16 mM, 37° C., 7 days, read-out: Concentration of Compound I (solubility)
  solubility at 7 days: 1.5 µg/mL
[1]; cyclodextrin solution, aqueous with cosolvent or surfactant or cyclodextrin, γCD 10 mM, 37° C., 7 days, read-out: Concentration of Compound I (solubility)
  solubility at 7 days: 1.3 µg/mL (≈ 2.68 µM)
[1]; cyclodextrin solution, aqueous with cosolvent or surfactant or cyclodextrin, γCD 100 mM, 37° C., 7 days, read-out: Concentration of Compound I (solubility)
  solubility at 7 days: 19.5 µg/mL (≈ 40.2 µM)
[1]; cyclodextrin solution, aqueous with cosolvent or surfactant or cyclodextrin, γCD 200 mM, 37° C., 7 days, read-out: Concentration of Compound I (solubility)
  solubility at 7 days: 29.1 µg/mL (≈ 59.9 µM)
[1]; water without cyclodextrin, water, without cyclodextrin, read-out: Solubility in water
  solubility at 7 days: < 0.6 µg/mL
[1]; βCD solution, aqueous with cosolvent or surfactant or cyclodextrin, βCD, maximum concentration used 4 mM, read-out: Maximum solubility
  solubility at 7 days: 6.8 µg/mL (≈ 14 µM)
[1]; γCD solution, aqueous with cosolvent or surfactant or cyclodextrin, γCD 25 mM, 37° C., 7 days, read-out: Concentration of Compound I (solubility)
  solubility at 7 days: 3.2 µg/mL (≈ 6.59 µM)
[1]; γCD solution, aqueous with cosolvent or surfactant or cyclodextrin, γCD 50 mM, 37° C., 7 days, read-out: Concentration of Compound I (solubility)
  solubility at 7 days: 11.4 µg/mL (≈ 23.5 µM)
[1]; γCD solution, aqueous with cosolvent or surfactant or cyclodextrin, γCD 75 mM, 37° C., 7 days, read-out: Concentration of Compound I (solubility)
  solubility at 7 days: 13.6 µg/mL (≈ 28 µM)
[1]; γCD solution, aqueous with cosolvent or surfactant or cyclodextrin, γCD, maximum concentration used 200 mM, read-out: Maximum solubility
  solubility at 7 days: 29.1 µg/mL (≈ 59.9 µM)
[2]
  Tissue eosinophil infiltration score: decreased
